US20230048888A1, “USE OF TRIAZOLOTRIAZINE DERIVATIVE IN TREATMENT OF DISEASES” (ZHEJIANG VIMGREEN PHARMACEUTICALS, LTD., priority 2019, published 2023)

Key:
[1] = molecular target: T1, adenosine receptors A2A (Homo sapiens, UniProt P29274); experiment: TR-FRET-based cAMP accumulation assay in hADORA2A-HEK293 cells; assay type: cell-based; conditions: NECA at EC80, hADORA2A-HEK293, read-out: A2AR activity (IC50)
T1 construct: expressed in transfected cells; host or cells: HEK293 (hADORA2A-HEK293)
T1 sequence (P29274 whole entry): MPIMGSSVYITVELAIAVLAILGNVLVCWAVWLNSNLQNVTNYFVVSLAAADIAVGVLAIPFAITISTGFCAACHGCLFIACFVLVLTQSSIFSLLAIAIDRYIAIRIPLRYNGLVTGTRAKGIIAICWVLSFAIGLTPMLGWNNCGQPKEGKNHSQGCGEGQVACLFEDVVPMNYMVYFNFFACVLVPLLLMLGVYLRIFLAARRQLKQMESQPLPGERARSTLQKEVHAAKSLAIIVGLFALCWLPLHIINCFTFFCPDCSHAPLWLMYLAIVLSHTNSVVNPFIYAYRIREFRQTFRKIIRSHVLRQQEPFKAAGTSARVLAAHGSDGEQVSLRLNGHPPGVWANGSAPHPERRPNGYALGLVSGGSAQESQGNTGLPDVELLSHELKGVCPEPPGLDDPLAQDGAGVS

[2] = molecular target: T2, adenosine receptor A3 (Homo sapiens, UniProt P0DMS8); experiment: cAMP experiment on Gi-coupled adenosine receptor A3 (CHO); assay type: cell-based; conditions: cAMP accumulation; read-out: IC50 (nM) CHO cells (ADORA3)
T2 construct: host or cells: CHO
T2 sequence (P0DMS8 1-318): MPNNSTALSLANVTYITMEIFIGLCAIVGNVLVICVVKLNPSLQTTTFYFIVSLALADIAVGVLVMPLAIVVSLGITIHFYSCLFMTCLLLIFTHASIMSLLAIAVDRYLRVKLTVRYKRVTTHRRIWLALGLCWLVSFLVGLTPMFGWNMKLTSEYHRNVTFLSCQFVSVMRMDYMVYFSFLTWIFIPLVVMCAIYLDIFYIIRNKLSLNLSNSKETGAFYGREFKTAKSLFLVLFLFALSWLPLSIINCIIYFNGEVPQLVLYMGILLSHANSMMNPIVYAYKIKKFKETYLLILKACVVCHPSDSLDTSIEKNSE
Description: Similarly, a CHO cell strain stably expressing the adenosine receptor A3 was taken as a study object (PerkinElmer, ES-012-C) for the experiment. The IC50 value of the compound was calculated.

[3] = Pharmacokinetics of Compounds 27, 40, 22 and 41 in ICR mice in different modes of administration; assay type: in vivo; conditions: for AUC(0-t) / Cmax / half-life: ICR
From the text: WinNonlin® 6.4 was used as the calculation software for PK parameters.

[4] = Pharmacokinetics of Compounds 22, 27 and 40 in SD rats after oral administration for 7 consecutive days; assay type: in vivo; conditions: for AUC(0-t) / Cmax / Tmax: male, po, 30 mg/kg; for Tmax: median
Description: 12 male SD rats (about 7-9 weeks old on the day of administration, 283.0-298.1 g) were purchased from SPF (Beijing) Biotechnology Co., Ltd. They were randomly divided into 3 groups, with 4 rats in each group, and received orally administration once daily for 7 consecutive days. Compound 27 was administrated to Group 1 at 30 mg/kg, Compound 22 was administrated to Group 2 at 30 mg/kg, and Compound 40 was administrated to Group 3 at 30 mg/kg. All animals had free access to water and diet during dosing.
0.3366 g of Compound 27, 0.3333 g of Compound 22 and 0.3366 g of Compound 40 were weighed out respectively, and dissolved in 44 mL of PEG400 with stirring and ultrasonication; 50 mL of PBS was added to the resulting mixture, stirred and sonicated for complete dissolution; PBS was added to fix the volume to the final volume of 110 mL, thereby obtaining the target formulation solution with the final concentration of 3.0 mg/mL. The prepared formulation solution was divided into 7 portions, each of 15 mL, and stored in a refrigerator at 4° C. Before administration, the formulation was held at room temperature, until its temperature returned to room temperature; the formulation was stirred at room temperature for at least 10 minutes; and the stirring continued during the administration. The entire process for preparing the formulation was operated under yellow light, and during transferring, the prepared formulation was wrapped with tin foil to protect it from light.
The concentrations of Compounds 27, 22 and 40 in the plasma of SD rats were determined by liquid chromatography-mass spectrometry, with […] as the internal standard compound. With the mass spectrometer scanning in the electrospray ion source positive ion mode, the mass-to-charge ratios of parent ions to daughter ions in Compounds 27, 40 and 22 and tolbutamide were 395.2→178.2, 404.2→158.9, 393.4→146.2 and 455.2→165.0, respectively.
The pharmacokinetic parameters of Compounds 27, 40 and 22 were calculated by the software Phoenix™ WinNonlin Version 6.1 using the non-compartmental model. Pharmacokinetic data was calculated using the linear logarithmic trapezoidal method, with a weight of 1/Y*Y. Samples with the sample concentration below the lower limit of quantification were excluded from the calculation of pharmacokinetic parameters. […] The mean time to peak (Tmax) was represented as a median.

[5] = mouse, in vivo, po, 30 mg/kg, PO (after 7 consecutive days of administration), 30 mg/kg
[6] = mouse, in vivo, po, 30 mg/kg, PO (single)
[7] = male SD rats, oral 30 mg/kg once a day for 7 consecutive days, Day 7, mean

Cn1nnc(-c2ccc(CCNc3nc(N)n4nc(-c5ccco5)nc4n3)cc2)n1 [Compound 40, N5-(4-(2-methyl-2H-tetrazol-5-yl)phenethyl)-2-(furan-2-yl)-[1,2,4]triazolo[1,5-a][1,3,5]triazine-5,7-diamine]
IC50 [1]: 9.66 nM
IC50 [2]: 928 nM
Drug accumulation after consecutive oral administration ([3]; 30 mg/kg oral): significant drug accumulation is not observed
AUC(0-t) ([3]; mouse, in vivo, iv, 1 mg/kg): 1540 ng·h/mL
Cmax ([3]; mouse, in vivo, iv, 1 mg/kg): 1880 ng/mL
half-life ([3]; mouse, in vivo, iv, 1 mg/kg): 2.49 h
AUC(0-t) ([3]; mouse, in vivo, po, 5 mg/kg): 5540 ng·h/mL
Cmax ([3]; mouse, in vivo, po, 5 mg/kg): 2130 ng/mL
half-life ([3]; mouse, in vivo, po, 5 mg/kg): 2.36 h
AUC(0-t) [3, 5]: 10600 ng·h/mL
Cmax [3, 5]: 2330 ng/mL
half-life [3, 5]: 2.79 h
AUC(0-t) [3, 6]: 24400 ng·h/mL
Cmax [3, 6]: 14400 ng/mL
half-life [3, 6]: 1.65 h
Cl—F—pred ([3]; PO (after 7 consecutive days of administration), 30 mg/kg): 47 mL/min/kg
Cl—F—pred ([3]; PO (single), 30 mg/kg): 20.5 mL/min/kg
Cl—F—pred ([3]; PO, 5 mg/kg): 15 mL/min/kg
F ([3]; PO, 5 mg/kg): 71.99%
clearance ([3]; mouse, in vivo, IV, 1 mg/kg, read-out: Cl—pred (converted)): 10.8 mL/min/kg
Accumulation after consecutive administration ([4]; SD rats, oral 30 mg/kg once a day for 7 consecutive days): do not show significant accumulation
AUC ([4]; Sprague-Dawley, rat, plasma, male SD rats, oral 30 mg/kg once a day for 7 consecutive days, Day 7, mean): 6580 ng·h/mL
Cavg [4, 7]: 274 ng/mL
Cmin [4, 7]: 52.3 ng/mL
AUC(0-t) ([4]; Sprague-Dawley (SD), rat, plasma, male SD rats, oral 30 mg/kg once a day, Day 1, read-out: drug exposure AUC0-t): 5150 ng·h/mL
Cmax ([4]; Sprague-Dawley (SD), rat, plasma, male SD rats, oral 30 mg/kg once a day, Day 1, read-out: maximum plasma concentration Cmax): 503 ng/mL
AUC(0-t) ([4]; Sprague-Dawley (SD), rat, plasma, male SD rats, oral 30 mg/kg once a day, seventh day, read-out: drug exposure AUC0-t): 6580 ng·h/mL
Cmax ([4]; Sprague-Dawley (SD), rat, plasma, male SD rats, oral 30 mg/kg once a day, seventh day, read-out: maximum plasma concentration Cmax): 581 ng/mL
AUC(0-t) ([4]; Sprague-Dawley, rat, plasma, male SD rats, oral 30 mg/kg once a day for 7 consecutive days, Day 7, mean, read-out: AUC0-t): 6580 ng·h/mL
Cmax ([4]; Sprague-Dawley, rat, plasma, male SD rats, oral 30 mg/kg once a day for 7 consecutive days, Day 7, mean, read-out: Cmax): 581 ng/mL
Tmax ([4]; Sprague-Dawley, rat, plasma, male SD rats, oral 30 mg/kg once a day for 7 consecutive days, Day 7): 4 h
AUC(0-t) ([4]; Sprague-Dawley, rat, plasma, male SD rats, oral 30 mg/kg once a day, Day 1, mean, read-out: AUC0-t): 5150 ng·h/mL
Cmax ([4]; Sprague-Dawley, rat, plasma, male SD rats, oral 30 mg/kg once a day, Day 1, mean, read-out: Cmax): 503 ng/mL
Tmax ([4]; Sprague-Dawley, rat, plasma, male SD rats, oral 30 mg/kg once a day, Day 1): 3 h
